Reference: US20250375422A1, “METHOD FOR TREATING CANCERS” (Acura Nanomedicine Corporation, priority 2019, published 2025)

Test system: BxPC-3 cells
Assay: MTT assay, cell viability of pancreatic cancer BxPC-3 cells
Type: cell-based, human
Protocol: Cell lines used in the present disclosure include human pancreatic cancer cell lines BxPC-3, Mia-Paca-2/R (gemcitabine resistant cell line), and Panc-1/R (gemcitabine resistant cell line); human liver cancer cell lines SK-Hep-1 and Hep 3B; and human brain glioblastoma cell line GBM8401, which is a TMZ-resistant cell line. Cells were cultured in Dulbecco's modified Eagle media (DMEM) supplemented with 10% heat inactivated fetal bovine serum (FBS), 50 units/mL penicillin G, 50 μg/mL streptomycin (pH 7.4), and the cells were maintained in humidified environment comprising 5% CO2/95% air at 37° C.
The absorbance of the solution at 570 nm was measured by spectrophotometer.

CCN(CCO)CCCC(C)Nc1ccnc2cc(Cl)ccc12 (centres unmarked) [HCQ, hydroxychloroquine]
cell viability of BxPC-3 cells (HCQ (20 or 50 μM) alone): slightly and/or unaffected

COC(=O)Nc1nc2ccc(C(=O)c3ccccc3)cc2[nH]1 [MBZ, mebendazole]
viability at 5 µM (Homo sapiens, BXPC-3, MBZ (5 μM)): ~60%
